# Data from patent publication US11186589B2, “Cyanoindoline derivatives as NIK inhibitors” (Janssen Pharmaceutica NV, priority 2016, dated 2021).
# Molecular target: NIK/MAP3K14 (Homo sapiens (Human), UniProt Q99558)
# Test: Inhibition of auto-phosphorylation of recombinant human NF-kappaB-inducing kinase (NIK/MAP3K14) activity (AlphaScreen)
# Type: biochemical
# Conditions: averaged values over all measurements on all batches, 25 microM ATP
# Method: Inhibition of Auto-Phosphorylation of Recombinant Human NF-kappaB-Inducing Kinase ([…]) Activity (AlphaScreen®)
# NIK/MAP3K14 auto-phosphorylation activity was measured using the AlphaScreen® (αscreen) format (Perkin Elmer). All compounds tested were dissolved in dimethyl sulfoxide (DMSO) and further dilutions were made in assay buffer. Final DMSO concentration was […] in assays. Assay buffer was 50 mM Tris pH 7.5 containing 1 mM EGTA (ethylene glycol tetraacetic acid), 1 mM DTT (dithiothreitol), 0.1 mM Na3VO4, 5 mM MgCl2, 0.01% Tween® 20. Assays were carried out in 384 well Alphaplates (Perkin Elmer). Incubations consisted of compound, 25 microM Adenosine-5′-triphosphate (ATP), and 0.2 nM NIK/MAP3K14. Incubations were initiated by addition of GST-tagged NIK/MAP3K14 enzyme, carried out for 1 h at 25° C. and terminated by addition of stop buffer containing anti-phospho-[…] Ser176/180 antibody. Protein A Acceptor and Glutathione-Donor beads were added before reading using an EnVision® Multilabel Plate Reader (Perkin Elmer). Signal obtained in the wells containing blank samples was subtracted from all other wells and IC50's were determined by fitting a sigmoidal curve to % inhibition of control versus Log10 compound concentration.
# Chain of NIK/MAP3K14 (Q99558 whole entry): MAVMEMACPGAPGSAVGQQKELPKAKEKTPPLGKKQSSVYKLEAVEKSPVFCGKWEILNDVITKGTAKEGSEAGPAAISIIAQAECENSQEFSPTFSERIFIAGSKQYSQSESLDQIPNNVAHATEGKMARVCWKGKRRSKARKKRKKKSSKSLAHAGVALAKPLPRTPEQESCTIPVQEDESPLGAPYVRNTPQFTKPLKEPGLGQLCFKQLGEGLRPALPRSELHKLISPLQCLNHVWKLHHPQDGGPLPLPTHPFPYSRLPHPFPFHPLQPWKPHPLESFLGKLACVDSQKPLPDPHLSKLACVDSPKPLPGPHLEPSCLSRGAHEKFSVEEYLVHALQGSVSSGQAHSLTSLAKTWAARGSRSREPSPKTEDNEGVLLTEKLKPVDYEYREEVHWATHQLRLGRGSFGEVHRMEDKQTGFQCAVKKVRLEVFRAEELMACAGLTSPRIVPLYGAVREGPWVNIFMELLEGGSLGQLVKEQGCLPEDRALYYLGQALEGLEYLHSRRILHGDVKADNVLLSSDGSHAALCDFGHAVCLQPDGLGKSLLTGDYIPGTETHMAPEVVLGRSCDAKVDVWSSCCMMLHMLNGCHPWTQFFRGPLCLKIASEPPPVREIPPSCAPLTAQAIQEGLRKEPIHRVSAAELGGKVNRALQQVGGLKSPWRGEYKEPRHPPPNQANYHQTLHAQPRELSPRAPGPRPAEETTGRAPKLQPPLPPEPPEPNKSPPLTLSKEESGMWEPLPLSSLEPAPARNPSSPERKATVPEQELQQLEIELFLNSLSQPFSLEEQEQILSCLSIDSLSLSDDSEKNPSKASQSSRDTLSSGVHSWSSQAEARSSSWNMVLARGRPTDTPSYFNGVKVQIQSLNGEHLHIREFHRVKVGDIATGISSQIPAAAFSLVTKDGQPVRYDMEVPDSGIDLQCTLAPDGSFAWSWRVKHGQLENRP
row,IC50,SMILES
1,13 nM,CC(C)Oc1nc2c(cc1Nc1nccc(-c3cc(C#N)c4c(c3)[C@@](C)(CO)CN4)n1)COCC2 [Compound 46]
2,35.5 nM,C[C@]1(CO)CNc2c(C#N)cc(-c3ccnc(Nc4cc5c(nc4OC4CCCC4)CCOC5)n3)cc21 [Compound 47]
3,1.7 nM,COc1nc2c(cc1Nc1nccc(-c3cc(C#N)c4c(c3)[C@@](C)(CO)CN4)n1)COCC2 [Compound 25]
4,3.4 nM,CN(C)CC(=O)N1CCc2c1ccc(Nc1nccc(-c3cc(C#N)c4c(c3)C(C)(CO)CN4)n1)c2F (stereo not shown) [Compound 38]
5,11.7 nM,COC[C@@H]1Cn2ncc(Nc3nccc(-c4cc(C#N)c5c(c4)[C@@](C)(CO)CN5)n3)c2O1 [Compound 19b]
6,7.1 nM,CCCCCc1cc2c(cc1Nc1nccc(-c3cc(C#N)c4c(c3)[C@@](C)(CO)CN4)n1)CCN(C)CC2 (mixture of isomers) [Compound 27]
7,17 nM,CC(C)N1CCCn2ncc(Nc3nccc(-c4cc(C#N)c5c(c4)[C@@](C)(CO)CN5)n3)c2C1=O [Compound 28b]
8,4.8 nM,CCc1c(Nc2nccc(-c3cc(C#N)c4c(c3)[C@@](C)(CO)CN4)n2)ccc2c1CCN(C(C)CO)C2 (stereo partly shown) [Compound 60]

# Tested on: KMS12-BM cells
# Test: Antiproliferative activity on KMS12-BM (NIK WT) multiple myeloma cells (CellTiter-Glo)
# Type: cell-based, human
# Conditions: Homo sapiens, KMS-12-BM, 96 h, 96 hr treatment, averaged values, read-out: KMS-12 Proliferation inhibition (IC50 (nM))
# Method: (§1) Determination of Antiproliferative Activity on JJN-3 (NIK Translocated) and KMS12-BM (NIK WT) Multiple Myeloma Cells
# (§2) All compounds tested were dissolved in DMSO and further dilutions were made in culture medium. Final DMSO concentration was 0.3% (v/v) in cell proliferation assays. Viability was assessed using CellTiter-Glo cell viability assay kit (Promega). The human JJN-3 and KMS12-BM cells (DSMZ) were cultured in RPMI 1640 medium supplemented with 2 mM L-glutamine, and 10% fetal calf serum (PAA). Cells were routinely kept as suspension cells at 37° C. in a humidified 5% CO2 atmosphere. Cells were passaged at a seeding density of 0.2×10^6/ml twice a week. Cells were seeded in black tissue culture treated 96-well plates (Perkin Elmer). Densities used for plating ranged from 15000 (JJN3) to 20000 (KMS12BM) cells per well in a total volume of […]. Drugs and/or solvents were added (15 μl) to a final volume of 150 μl. Following 96 hr of treatment, plates were removed from the incubator and allowed to equilibrate to room temperature for approx 10 min. 75 μl CellTiter-Glo reagent was added to each well that was then covered (Perkin Elmer Topseal) and shaken on plate shaker for 10 min. Luminescence was measured on a HTS Topcount (Perkin Elmer). Within an experiment, the results for each treatment were the mean of 2 replicate wells. For initial screening purposes, compounds were tested using a 9 point dilution curve (serial 1:3 dilutions). For each experiment, controls (containing no drug) and a blank incubation (containing cells read at the time of compound addition) were run in parallel. The blank value was subtracted from all control and sample values. For each sample, the mean value for cell growth (in relative light units) was expressed as a percentage of the mean value for cell growth of the control.
row,IC50,SMILES
1,> 10000 nM,CC(C)Oc1nc2c(cc1Nc1nccc(-c3cc(C#N)c4c(c3)[C@@](C)(CO)CN4)n1)COCC2 [Compound 46]
2,> 10000 nM,COc1nc2c(cc1Nc1nccc(-c3cc(C#N)c4c(c3)[C@@](C)(CO)CN4)n1)COCC2 [Compound 25]
3,~5500 nM,COC[C@@H]1Cn2ncc(Nc3nccc(-c4cc(C#N)c5c(c4)[C@@](C)(CO)CN5)n3)c2O1 [Compound 19b]
4,1380 nM,CCCCCc1cc2c(cc1Nc1nccc(-c3cc(C#N)c4c(c3)[C@@](C)(CO)CN4)n1)CCN(C)CC2 (mixture of isomers) [Compound 27]
5,> 10000 nM,CC(C)N1CCCn2ncc(Nc3nccc(-c4cc(C#N)c5c(c4)[C@@](C)(CO)CN5)n3)c2C1=O [Compound 28b]
6,603 nM,CCc1c(Nc2nccc(-c3cc(C#N)c4c(c3)[C@@](C)(CO)CN4)n2)ccc2c1CCN(C(C)CO)C2 (stereo partly shown) [Compound 60]

# Tested on: P-IKKα levels in L363 cells
# Test: Effect of compounds on P-IKKα levels in L363 (NIK translocated multiple myeloma) cells
# Type: cell-based, human
# Conditions: Homo sapiens, L-363, 2 h, 2 hr treatment, averaged values, read-out: Inhibition of pIKKα_L-363 (IC50 (nM))
# Method: Effect of Compounds on P-IKKα Levels in L363 (NIK Translocated Multiple Myeloma) Cells
# All compounds tested were dissolved in DMSO and further dilutions were made in culture medium. Final DMSO concentration was 1% (v/v) in cell assays. The human L363 cells (ATCC) were cultured in RPMI 1640 medium supplemented with GlutaMax and 10% fetal calf serum (PAA). Cells were routinely maintained at densities of 0.2×10^6 cells per ml—1×10^6 cells per ml at 37° C. in a humidified 5% CO2 atmosphere. Cells were passaged twice a week splitting back to obtain the low density. Cells were seeded in 96 well plates (Nunc 167008) at 2×10^6 per ml media in a volume of 75 μl per well plus 25 μl 1 μg/ml recombinant human B-cell activating factor (BAFF/BLyS/TNFSF13B). Seeded cells were incubated at 37° C. in a humidified 5% CO2 atmosphere for 24 hr. Drugs and/or solvents were added (20 μl) to a final volume of 120 μl. Following 2 hr treatment plates were removed from the incubator and cell lysis was achieved by the addition of 30 μl 5× lysis buffer followed by shaking on a plate shaker at 4° C. for 10 min. At the end of this incubation lysed cells were centrifuged at 800×g for 20 min at 4° C. and the lysate was assessed for P-IKKα levels by sandwich immuno-assay carried out in anti-rabbit antibody coated Mesoscale plates. Within an experiment, the results for each treatment were the mean of 2 replicate wells. For initial screening purposes, compounds were tested using an 8 point dilution curve (serial 1:3 dilutions). For each experiment, controls (containing MG132 and BAFF but no test drug) and a blank incubation (containing MG132 and BAFF and 10 μM ADS125117, a test concentration known to give full inhibition) were run in parallel. The blank incubation value was subtracted from all control and sample values. To determine the IC50 a sigmoidal curve was fitted to the plot of % inhibition of control P-IKKα levels versus Log10 compound concentration.
row,IC50,SMILES
1,20 nM,CC(C)Oc1nc2c(cc1Nc1nccc(-c3cc(C#N)c4c(c3)[C@@](C)(CO)CN4)n1)COCC2 [Compound 46]
2,51 nM,C[C@]1(CO)CNc2c(C#N)cc(-c3ccnc(Nc4cc5c(nc4OC4CCCC4)CCOC5)n3)cc21 [Compound 47]
3,10 nM,COc1nc2c(cc1Nc1nccc(-c3cc(C#N)c4c(c3)[C@@](C)(CO)CN4)n1)COCC2 [Compound 25]
4,12 nM,CN(C)CC(=O)N1CCc2c1ccc(Nc1nccc(-c3cc(C#N)c4c(c3)C(C)(CO)CN4)n1)c2F (stereo not shown) [Compound 38]
5,19 nM,COC[C@@H]1Cn2ncc(Nc3nccc(-c4cc(C#N)c5c(c4)[C@@](C)(CO)CN5)n3)c2O1 [Compound 19b]
6,~1200 nM,CCCCCc1cc2c(cc1Nc1nccc(-c3cc(C#N)c4c(c3)[C@@](C)(CO)CN4)n1)CCN(C)CC2 (mixture of isomers) [Compound 27]
7,251 nM,CC(C)N1CCCn2ncc(Nc3nccc(-c4cc(C#N)c5c(c4)[C@@](C)(CO)CN5)n3)c2C1=O [Compound 28b]
8,17 nM,CCc1c(Nc2nccc(-c3cc(C#N)c4c(c3)[C@@](C)(CO)CN4)n2)ccc2c1CCN(C(C)CO)C2 (stereo partly shown) [Compound 60]

# Tested on: JJN-3 cells
# Test: Antiproliferative activity on JJN-3 (NIK translocated) multiple myeloma cells (CellTiter-Glo)
# Type: cell-based, human
# Conditions: Homo sapiens, JJN-3, 96 h, JJN-3 (NIK translocated) cells, 96 hr treatment, averaged values, read-out: JJN-3 Proliferation inhibition (IC50 (nM))
# Method: as §1, §2
row,IC50,SMILES
1,778 nM,CC(C)Oc1nc2c(cc1Nc1nccc(-c3cc(C#N)c4c(c3)[C@@](C)(CO)CN4)n1)COCC2 [Compound 46]
2,174 nM,COc1nc2c(cc1Nc1nccc(-c3cc(C#N)c4c(c3)[C@@](C)(CO)CN4)n1)COCC2 [Compound 25]
3,316 nM,COC[C@@H]1Cn2ncc(Nc3nccc(-c4cc(C#N)c5c(c4)[C@@](C)(CO)CN5)n3)c2O1 [Compound 19b]
4,871 nM,CCCCCc1cc2c(cc1Nc1nccc(-c3cc(C#N)c4c(c3)[C@@](C)(CO)CN4)n1)CCN(C)CC2 (mixture of isomers) [Compound 27]
5,3390 nM,CC(C)N1CCCn2ncc(Nc3nccc(-c4cc(C#N)c5c(c4)[C@@](C)(CO)CN5)n3)c2C1=O [Compound 28b]
6,100 nM,CCc1c(Nc2nccc(-c3cc(C#N)c4c(c3)[C@@](C)(CO)CN4)n2)ccc2c1CCN(C(C)CO)C2 (stereo partly shown) [Compound 60]
